Where “and” joins values, the source holds several entries; their conditions need not be identical. Equal entries are not always repeated.
Each compound was assayed against T1, HCMV polymerase (Human cytomegalovirus, UniProt P08546) (assay: HCMV polymerase assay (scintillation proximity assay)). Settings: IC50 uM, Table 10; CMV pol Assay.
T1 construct: made in house; host or cells: recombinant baculovirus-infected SF-9 cells
Assay type: biochemical
Protocol: The HCMV polymerase assay is performed using a scintillation proximity assay (SPA) as described in several references, such as N. D. Cook, et al., Pharmaceutical Manufacturing International, pages 49-53 (1992); K. Takeuchi, Laboratory Practice, September issue (1992); U.S. Pat. No. 4,568,649 (1986); which are incorporated by reference herein. Reactions are performed in 96-well plates. The assay is conducted in 100 μl volume with 5.4 mM HEPES (pH 7.5), 11.7 mM KCl, 4.5 mM MgCl2, 0.36 mg/ml BSA, and 90 nM ^3H-dTTP. Assays are run with and without CHAPS, (3-[(3-Cholamidopropyl)-dimethylammonio]-1-propane-sulfonate) at a final concentration of 2 mM. HCMV is diluted in enzyme dilution buffer containing 50% glycerol, 250 mM NaCl, 10 mM HEPES (pH 7.5), 100 pg/ml BSA, and 0.01% sodium azide. The HCMV polymerase, which is expressed in recombinant baculovirus-infected SF-9 cells and purified according to literature procedures, is added at 10% (or 10 μl) of the final reaction volume, i.e., 100 μl. Compounds are diluted in 50% DMSO and 10 μl are added to each well. Control wells contain an equivalent concentration of DMSO. Unless noted otherwise, reactions are initiated via the addition of 6 nM biotinylated poly(dA)-oligo(dT) template/primer to reaction mixtures containing the enzyme, substrate, and compounds of interest. Plates are incubated in a 25° C. of 37° C. H2O bath and terminated via the addition of 40 μl/reaction of 0.5 M EDTA (pH 8) per well. Reactions are terminated within the time-frame during which substrate incorporation is linear and varied depending upon the enzyme and conditions used, i.e., 30 min. for HCMV polymerase. Ten μl of streptavidin-SPA beads (20 mg/ml in PBS/10% glycerol) are added following termination of the reaction. Plates are incubated 10 min. at 37° C., then equilibrated to room temperature, and counted on a Packard Topcount. Linear regressions are performed and IC50's are calculated using computer software. Results of the testing of compounds of the present invention in this assay are shown in Tables 1, 2, 5, 9, 10, 11, 13 (except for the last compound which was tested under modified conditions) and 14 below.

T1 sequence (P08546 whole entry): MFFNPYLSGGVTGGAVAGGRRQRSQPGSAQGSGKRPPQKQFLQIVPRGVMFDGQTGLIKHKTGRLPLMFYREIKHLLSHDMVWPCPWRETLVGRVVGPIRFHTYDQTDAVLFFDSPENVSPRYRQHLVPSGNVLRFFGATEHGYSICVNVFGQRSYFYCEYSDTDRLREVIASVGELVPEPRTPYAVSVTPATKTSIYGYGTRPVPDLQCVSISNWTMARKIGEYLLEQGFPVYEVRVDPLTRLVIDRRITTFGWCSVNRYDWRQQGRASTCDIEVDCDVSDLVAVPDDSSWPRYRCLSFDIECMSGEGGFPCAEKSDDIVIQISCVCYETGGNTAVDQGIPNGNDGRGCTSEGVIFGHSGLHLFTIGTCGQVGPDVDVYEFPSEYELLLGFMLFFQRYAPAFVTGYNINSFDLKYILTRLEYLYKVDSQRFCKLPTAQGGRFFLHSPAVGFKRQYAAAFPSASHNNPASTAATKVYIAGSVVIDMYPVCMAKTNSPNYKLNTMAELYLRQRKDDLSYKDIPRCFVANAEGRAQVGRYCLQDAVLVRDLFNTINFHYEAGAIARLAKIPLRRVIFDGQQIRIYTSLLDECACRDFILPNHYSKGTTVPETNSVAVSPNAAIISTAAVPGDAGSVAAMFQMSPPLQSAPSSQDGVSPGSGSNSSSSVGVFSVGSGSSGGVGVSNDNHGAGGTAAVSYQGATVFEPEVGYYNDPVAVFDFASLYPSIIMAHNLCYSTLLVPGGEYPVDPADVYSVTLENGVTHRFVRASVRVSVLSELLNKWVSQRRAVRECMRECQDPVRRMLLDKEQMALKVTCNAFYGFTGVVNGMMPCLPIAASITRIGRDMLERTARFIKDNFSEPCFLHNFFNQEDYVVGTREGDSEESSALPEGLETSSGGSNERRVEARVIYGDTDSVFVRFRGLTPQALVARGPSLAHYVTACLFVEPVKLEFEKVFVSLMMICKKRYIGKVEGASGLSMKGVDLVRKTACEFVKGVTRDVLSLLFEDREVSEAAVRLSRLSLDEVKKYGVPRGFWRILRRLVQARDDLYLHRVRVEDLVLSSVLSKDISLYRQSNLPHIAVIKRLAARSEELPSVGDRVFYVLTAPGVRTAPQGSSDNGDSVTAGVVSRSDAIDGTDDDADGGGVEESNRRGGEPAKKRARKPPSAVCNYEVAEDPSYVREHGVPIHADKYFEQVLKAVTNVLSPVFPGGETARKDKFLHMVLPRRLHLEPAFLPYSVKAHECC

SMILES | IC50
O=C(Nc1ccc2c(C(F)(F)F)cc(=O)oc2c1)c1ccc2cccnc2c1O | 9.5 µM

Same assay, conditions: Table 9; read-out: CMV pol Assay- IC50

SMILES | IC50
O=C(NCC(c1ccccc1)c1ccccc1)c1ccc2cccnc2c1O | 0.9 µM
O=C(NCCC(c1ccccc1)c1ccccc1)c1ccc2cccnc2c1O | < 1.5 µM
CC1(C)C2CCC(CNC(=O)c3ccc4cccnc4c3O)C1C2 (stereo not shown) | 1.5 µM
CCCCCCC(C)NC(=O)c1ccc2cccnc2c1O (stereo not shown) | 1.7 µM
O=C(N[C@@H](c1ccccc1)[C@H](O)c1ccccc1)c1ccc2cccnc2c1O | 2.2 µM and 4.7 µM
CCCCCCCCCNC(=O)c1ccc2cccnc2c1O | 2.2 µM
CC(C)(C)C1CCC(NC(=O)c2ccc3cccnc3c2O)CC1 (stereo not shown) | 2.3 µM
C[C@@H](NC(=O)c1ccc2cccnc2c1O)c1cccc2ccccc12 | < 3.1 µM and 2.4 µM and 10.8 µM
CC(NC(=O)c1ccc2cccnc2c1O)c1ccc(Br)cc1 (stereo not shown) | 2.6 µM
O=C(N[C@H](c1ccccc1)[C@@H](O)c1ccccc1)c1ccc2cccnc2c1O | 2.9 µM and 6.4 µM
C[C@H](NC(=O)c1ccc2cccnc2c1O)c1cccc2ccccc12 | 3 µM
O=C(NCc1c(Cl)cccc1Oc1ccccc1)c1ccc2cccnc2c1O | 3.1 µM
CCCCCCCCCCCNC(=O)c1ccc2cccnc2c1O | < 3.1 µM
CC1CCCCC1NC(=O)c1ccc2cccnc2c1O (stereo not shown) | < 3.1 µM and > 10 µM
O=C(N[C@H](CO)Cc1ccc(O)cc1)c1ccc2cccnc2c1O | 3.1 µM
CCCCC(CC)CNC(=O)c1ccc2cccnc2c1O (stereo not shown) | 3.2 µM
O=C(NCc1cccc2ccccc12)c1ccc2cccnc2c1O | 3.7 µM
O=C(NCCc1ccc(Oc2ccccc2)cc1)c1ccc2cccnc2c1O | 4.5 µM
C[C@@H](NC(=O)c1ccc2cccnc2c1O)c1ccc(Br)cc1 | 4.6 µM
COC(=O)[C@H](Cc1ccc(OCc2ccccc2)cc1)NC(=O)c1ccc2cccnc2c1O | 4.9 µM
O=C(NCCc1ccc(Br)cc1)c1ccc2cccnc2c1O | 5 µM
O=C(NCc1ccc(Cl)cc1Cl)c1ccc2cccnc2c1O | 5.2 µM
CCCCCCCNC(=O)c1ccc2cccnc2c1O | 5.2 µM
CCCCCCCCNC(=O)c1ccc2cccnc2c1O | 5.6 µM
O=C(NCc1ccc(Cl)c(Cl)c1)c1ccc2cccnc2c1O | 5.6 µM

SMILES | IC50
O=C(NC1(CO)CCCC1)c1ccc2cccnc2c1O | 6.6 µM
O=C(NCCc1ccc(Cl)cc1)c1ccc2cccnc2c1O | 6.7 µM
O=C(NCCc1cccc(Cl)c1)c1ccc2cccnc2c1O | 6.9 µM
O=C(NCc1c(F)cccc1F)c1ccc2cccnc2c1O | 7.1 µM
CCCCCCCCCCNC(=O)c1ccc2cccnc2c1O | 7.1 µM
O=C(NCCCCc1ccccc1)c1ccc2cccnc2c1O | 7.4 µM
O=C(NC1CCCCCCC1)c1ccc2cccnc2c1O | 7.6 µM
O=C(NC1CCCc2ccccc21)c1ccc2cccnc2c1O (stereo not shown) | 7.6 µM
O=C(NCC(O)c1ccccc1)c1ccc2cccnc2c1O (stereo not shown) | 7.8 µM
CCCCCC(C)NC(=O)c1ccc2cccnc2c1O (stereo not shown) | 7.9 µM
CC(C)(C)OC(=O)[C@H](Cc1ccc(O)cc1)NC(=O)c1ccc2cccnc2c1O | 8.1 µM
O=C(NCCSCc1c(Cl)cccc1Cl)c1ccc2cccnc2c1O | 8.4 µM
CC1CCCC(NC(=O)c2ccc3cccnc3c2O)C1C (stereo not shown) | 8.4 µM
O=C(NCc1cccc(C(F)(F)F)c1)c1ccc2cccnc2c1O | 8.5 µM
O=C(NCc1cccc(Cl)c1)c1ccc2cccnc2c1O | 8.7 µM
O=C(NCCc1ccc(Cl)cc1Cl)c1ccc2cccnc2c1O | 9 µM
O=C(N[C@@H](CO)C(=O)OCc1ccccc1)c1ccc2cccnc2c1O | 11.3 µM and 9.2 µM
O=C(NCCSc1ccccc1)c1ccc2cccnc2c1O | 9.2 µM
O=C(NCCCc1ccccc1)c1ccc2cccnc2c1O | 9.3 µM
O=C(NCc1ccccc1Sc1ccccc1CO)c1ccc2cccnc2c1O | 9.4 µM
O=C(NCCSCc1c(F)cccc1Cl)c1ccc2cccnc2c1O | 9.6 µM
COC(=O)[C@H](Cc1ccc([N+](=O)[O-])cc1)NC(=O)c1ccc2cccnc2c1O | 10.8 µM
O=C(NCCc1c[nH]c2ccccc12)c1ccc2cccnc2c1O | 11.1 µM
COC(=O)C(Cc1ccc(O)cc1)NC(=O)c1ccc2cccnc2c1O (stereo not shown) | 12.1 µM
O=C(NCCSc1cc(C(F)(F)F)nc2ccccc12)c1ccc2cccnc2c1O | 12.6 µM

SMILES | IC50
O=C(NC1CCc2ccccc21)c1ccc2cccnc2c1O (stereo not shown) | 13.2 µM
O=C(NCc1ccc(C(F)(F)F)cc1)c1ccc2cccnc2c1O | 13.7 µM
O=C(NCc1cccc(Cl)c1Cl)c1ccc2cccnc2c1O | 14.6 µM
CC(CNC(=O)c1ccc2cccnc2c1O)c1ccccc1 (stereo not shown) | 14.8 µM
O=C(NCc1ccccc1C(F)(F)F)c1ccc2cccnc2c1O | 15.7 µM
Cc1ccc(CCNC(=O)c2ccc3cccnc3c2O)cc1 | 16.8 µM
O=C(NCc1cc(Cl)ccc1Cl)c1ccc2cccnc2c1O | 17 µM
O=C(NCc1ccc(F)c(Cl)c1)c1ccc2cccnc2c1O | 17.5 µM
O=C(N[C@@H]1CC2CCC1C2)c1ccc2cccnc2c1O (stereo partly shown) | 19.2 µM
COc1cc(CNC(=O)c2ccc3cccnc3c2O)ccc1O | 19.3 µM
O=C(NCc1ccccc1Cl)c1ccc2cccnc2c1O | 19.7 µM
O=C(NCCc1ccc(O)cc1)c1ccc2cccnc2c1O | 20.1 µM
CC1CCCC(NC(=O)c2ccc3cccnc3c2O)C1 (stereo not shown) | 20.6 µM
CCCCCCCCCCCCCCCCCCNC(=O)c1ccc2cccnc2c1O | 20.7 µM
O=C(NCCC1=CCCCC1)c1ccc2cccnc2c1O | 21.1 µM
CC(NC(=O)c1ccc2cccnc2c1O)c1ccccc1 (stereo not shown) | 22.2 µM
O=C(NCc1cc(F)ccc1F)c1ccc2cccnc2c1O | 22.3 µM
Cc1cccc(CNC(=O)c2ccc3cccnc3c2O)c1 | 22.6 µM
Cc1ccccc1CNC(=O)c1ccc2cccnc2c1O | 23.2 µM
CC1CCC(NC(=O)c2ccc3cccnc3c2O)CC1 (stereo not shown) | 23.3 µM
O=C(NC1CCCCCC1)c1ccc2cccnc2c1O | 23.8 µM
O=C(NCC1CCCCC1)c1ccc2cccnc2c1O | 24.2 µM
O=C(NC1C2CC3CC(C2)CC1C3)c1ccc2cccnc2c1O (stereo not shown) | 24.3 µM
C[C@@H](NC(=O)c1ccc2cccnc2c1O)c1ccccc1 | 24.5 µM
CCOC(=O)C(Cc1c[nH]c2ccccc12)NC(=O)c1ccc2cccnc2c1O (stereo not shown) | 24.6 µM and 29.4 µM

Same assay, conditions: Table 10; CMV pol Assay; read-out: IC50

SMILES | IC50
O=C(Nc1cc(C(F)(F)F)cc(C(F)(F)F)c1)c1ccc2cccnc2c1O | 68.2 µM
Cc1noc(NS(=O)(=O)c2ccc(NC(=O)c3ccc4cccnc4c3O)cc2)c1C | 90 µM
O=C(Nc1ccc2c(c1)OCO2)c1ccc2cccnc2c1O | 16.4 µM
O=C(Nc1ccccc1Br)c1ccc2cccnc2c1O | 16 µM
O=C(Nc1cc(Br)ccc1Br)c1ccc2cccnc2c1O | 10.1 µM
O=C(Nc1ccccc1F)c1ccc2cccnc2c1O | 27.3 µM
N#Cc1c(F)c(F)c(NC(=O)c2ccc3cccnc3c2O)c(F)c1F | 18.5 µM
O=C(Nc1ccc(F)cc1F)c1ccc2cccnc2c1O | 26.8 µM
O=C(Nc1cc(F)c(F)cc1F)c1ccc2cccnc2c1O | 27.4 µM
O=C(Nc1ccccc1Cl)c1ccc2cccnc2c1O | 9.4 µM
O=C(Nc1ccc([N+](=O)[O-])cc1Cl)c1ccc2cccnc2c1O | 3.3 µM
Cc1ccc(Cl)c(NC(=O)c2ccc3cccnc3c2O)c1 | 7.5 µM
O=C(Nc1ccccc1I)c1ccc2cccnc2c1O | 12.5 µM
O=C(Nc1ccccc1[N+](=O)[O-])c1ccc2cccnc2c1O | > 100 µM
O=C(Nc1cc(Cl)ccc1O)c1ccc2cccnc2c1O | 13.8 µM
O=C(Nc1ccccc1-c1ccccc1)c1ccc2cccnc2c1O | 4.3 µM
CSc1ccccc1NC(=O)c1ccc2cccnc2c1O | 8.2 µM
Cc1ccccc1NC(=O)c1ccc2cccnc2c1O | 13.4 µM
Cc1c(NC(=O)c2ccc3cccnc3c2O)cccc1[N+](=O)[O-] | 5.5 µM
Cc1cccc(NC(=O)c2ccc3cccnc3c2O)c1C | 8.6 µM
CCc1ccccc1NC(=O)c1ccc2cccnc2c1O | 7.3 µM
O=C(Nc1cccc(C(F)(F)F)c1)c1ccc2cccnc2c1O | 18.4 µM
Cc1cc(F)ccc1NC(=O)c1ccc2cccnc2c1O | 10.2 µM
Cc1cc(Cl)ccc1NC(=O)c1ccc2cccnc2c1O | 3.6 µM
COc1cc(Cl)c(C)cc1NC(=O)c1ccc2cccnc2c1O | 7.9 µM
CCCc1ccc(NC(=O)c2ccc3cccnc3c2O)cc1 | 3.1 µM
O=C(Nc1ccc(Br)cc1F)c1ccc2cccnc2c1O | 6.9 µM
COc1ccc(Cl)c(NC(=O)c2ccc3cccnc3c2O)c1 | 7 µM
O=C(Nc1ccc(CO)cc1)c1ccc2cccnc2c1O | 3.7 µM
O=C(Nc1ccc(Br)cn1)c1ccc2cccnc2c1O | 21.6 µM

Source: US6500842B1, “8-hydroxy-7-substituted quinolines as anti-viral agents” (Pharmacia & Upjohn Company, priority 1996, dated 2002)
